# How the values were obtained:
# [1] = test system: human large intestine cancer cell line HCT116; assay: Antitumor effect on human large intestine cancer cell line HCT116 cancer-bearing mice; type: in vivo, mouse; details: 10 mg/kg, 2 doses per day, orally for 14 days; HCT116 cancer-bearing BALB/c nude mice; tumor growth vs control group
# Experimental: The compound of the present invention was evaluated for its antitumor effect on human large intestine cancer cell line HCT116 cancer-bearing mice by the following method.
# The human large intestine cancer cell line HCT116 (purchased from ATCC (American Type Culture Collection)) was transplanted to each 6-week-old BALB/c female nude mouse (BALB/cA Jcl nu/nu: CLEA Japan Inc.) by the subcutaneous injection of 1.0×10^6 cells. After the transplantation, successfully engrafted tumor was observed, and the tumor size was measured 10 to 14 days after the transplantation. The tumor volume was calculated according to the following expression:
# Tumor volume=Major axis×Minor axis×Minor axis×(½)
# Individuals in which the volume of the engrafted tumor reached approximately 150 mm^3 were selected and used in the experiment as groups each involving 5 to 8 individuals. Each test compound was suspended in a 0.5% methylcellulose solution and orally administered to each individual for 14 days using the dose and the number of doses shown in the table below. Finally, in order to measure drug effects, the tumor volume was calculated from the tumor sizes at the day before the start of the administration and at the final day of the administration, and tumor growth in the test compound administration group compared with a control administration group given only a 0.5% methylcellulose solution was calculated as T/C according to the following expression:
# T/C (%)=(Tumor volume after the completion of the administration of the test compound administration group−Tumor volume at the day before the start of the administration of the test compound administration group)/(Tumor volume after the completion of the administration of the control administration group−Tumor volume at the day before the start of the administration of the control administration group)×100
# [2] = molecular target: T1, human SCD1 (Homo sapiens, UniProt O00767); assay: Measurement of human SCD1 binding activity (inhibition of binding of radiolabeled compound Z); details: human SCD1-expressing membrane fraction, compound Z radioligand; for inhibition at 1 µM: 1 μM compound, read-out: Rate of inhibition of SCD1 binding (%) at compound concentration of 1 μM
# T1 construct: made in house; host or cells: High Five insect cells (baculovirus, pFastBac1/hSCD1); membrane fraction
# T1 sequence (O00767 1-359): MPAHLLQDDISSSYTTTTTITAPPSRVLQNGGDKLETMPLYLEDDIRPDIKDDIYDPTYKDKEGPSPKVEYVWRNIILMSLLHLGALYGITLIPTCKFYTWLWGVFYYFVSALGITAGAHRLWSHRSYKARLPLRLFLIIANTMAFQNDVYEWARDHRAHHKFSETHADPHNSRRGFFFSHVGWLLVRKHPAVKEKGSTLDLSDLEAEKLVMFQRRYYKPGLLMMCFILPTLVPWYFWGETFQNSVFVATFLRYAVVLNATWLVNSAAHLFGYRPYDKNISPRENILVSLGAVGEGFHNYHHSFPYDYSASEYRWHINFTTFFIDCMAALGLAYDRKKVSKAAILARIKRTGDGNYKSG
# Experimental: Measurement of Human SCD1 Binding Activity Using (5-(6-(1′H-spiro[1-benzofuran-3,3′-pyrrolidin]-1′-yl)pyridazin-3-yl)-1,2,4-oxadiazol-3-yl) [^3H2]methanol
# The SCD1 binding activity of the compound of the present invention was measured as the activity of inhibiting the binding of (5-(6-(1′H-spiro[1-benzofuran-3,3′-pyrrolidin]-1′-yl)pyridazin-3-yl)-1,2,4-oxadiazol-3-yl)[^3H2]methanol (radiolabeled form of the compound disclosed as a SCD inhibitor in Example 157 of International Publication No. WO2008/096746; in the present specification, also referred to as compound Z) to SCD1.
# Specifically, first, Human liver cDNA library (Takara Bio Inc.) was cloned as a template by PCR using KOD-Plus-(Toyobo Co., Ltd.) DNA polymerase. The primers used were 5′-[…]-3′ and 5′-[…]-3′. The amplification fragment was temporarily transferred to a pCR Blunt II-TOPO vector using Zero Blunt PCR Cloning Kit (Life Technologies, Inc.) to obtain pCR Blunt II-TOPO/hSCD1. A fragment obtained by the cleavage of this pCR Blunt II-TOPO/hSCD1 with BamHI and NotI was transferred to pFastBac1 (Life Technologies, Inc.) to construct a recombinant plasmid pFastBac1/hSCD1 for hSCD1 insect cell expression systems.
# Baculovirus was prepared using the pFastBac1/hSCD1 plasmid according to the protocol of Bac-to-Bac Baculovirus Expression System (Life Technologies, Inc.).
# The insect cells for use in expression were High Five cells (Life Technologies, Inc.) subcultured in a PSFM-J1 medium (Wako Pure Chemical Industries, Ltd.) containing 5% FBS, 10 U/L heparin (Sigma-Aldrich Corp.) and 50 μg/mL gentamicin.
# The High Five cells were inoculated at 0.8×10^6 cells/mL and cultured until the following day. When the cell density reached 2.0×10^6 cells/mL, Ammonium Iron(III) Sulfate 12-Water (Wako Pure Chemical Industries, Ltd.) was added thereto at a final concentration of 10 μM. The cells were further infected with the baculovirus and cultured for 3 days.
# After the completion of the culture, the culture solution was centrifuged (4° C., 4,000 rpm, […]) and frozen at −80° C. to obtain hSCD1-expressing insect cells. Next, the frozen hSCD1-expressing insect cells were suspended in buffer A (50 mM Tris-HCl (pH 7.5) containing 250 mM sucrose and cOmplete Protease Inhibitor Cocktail Tablets (F. Hoffmann-La Roche, Ltd.)), and the cells were disrupted (4° C., 20,000 rpm, 20 sec×2) using a POLYTORON homogenizer (Central Scientific Commerce, Inc.).
# This cell lysate was centrifuged (4° C., 850×g, […]), and the supernatant was further ultracentrifuged (4° C., 186,000×g, 60 min). The supernatant was discarded, and buffer A was added to the precipitate. The resultant was suspended using POLYTRON (4° C., 10,000 rpm, 10 sec×2) and passed through a 40-μm cell strainer to prepare a human SCD1-expressing membrane fraction (hereinafter, also simply referred to as human SCD1). The protein concentration was measured using BCA Protein Assay Kit (Thermo Fisher Scientific, Inc.) with BSA used as standards.
# The obtained primary dilution was diluted 250-fold by the addition of an assay buffer (10 mM Tris-HCl, pH 7.5, 100 mM KCl, 10 mM NaF, 3 mM MgCl2, 0.005% Tween 20, 1 mM GSH) to obtain a secondary dilution. The human SCD1 diluted using an assay buffer was dispensed at 100 μL/well (containing 0.2 μg of the protein) to a polypropylene 96-well plate, and then, the secondary dilution of the compound was added thereto at 50 μL/well. Further, a solution of 12 nM compound Z diluted with an assay buffer was added thereto at 50 μL/well, and the plate was left standing at room temperature for 2 hours. Then, the contents in each well were transferred to each well of UniFilter-96 GF/C PEI coated plate (PerkinElmer, Inc.) wetted with a washing buffer, followed by washing five times with a washing buffer (10 mM Tris-HCl, pH 7.5). After drying of the filter plate, Microscint-O (PerkinElmer, Inc.) was added thereto at 25 μL/well, and the obtained radioactivity was measured using TopCount (PerkinElmer, Inc.). […]
Compound,T/C (%) [1],inhibition at 1 µM [2],"inhibition at 0.1 µM ([2]; 0.1 μM compound, read-out: Rate of inhibition of SCD1 binding at compound concentration of 0.1 μM)"
"OCc1nnc(-c2ccc(N3CCC(c4ccc(C(F)(F)F)cc4)(C(F)(F)F)CC3)nn2)o1 [Example 84, (5-(6-(4-(Trifluoromethyl)-4-(4-(trifluoromethyl)phenyl)piperidin-1-yl)pyridazin-3-yl)-1,3,4-oxadiazol-2-yl)methanol]",58.4%,99%,–
"COC1(c2ccc(S(F)(F)(F)(F)F)cc2)CCN(c2ccc(-c3nnc(CO)s3)nn2)CC1 [Example 111, (5-(6-(4-Methoxy-4-(4-(pentafluorosulfanyl)phenyl)piperidin-1-yl)pyridazin-3-yl)-1,3,4-thiadiazol-2-yl)methanol]",–,–,93%
"OCc1nnc(-c2ccc(N3CCC(c4ccc(C(F)(F)F)cc4)(C(F)(F)F)CC3)nn2)s1 [Example 113, (5-(6-(4-(Trifluoromethyl)-4-(4-(trifluoromethyl)phenyl)piperidin-1-yl)pyridazin-3-yl)-1,3,4-thiadiazol-2-yl)methanol]",67.8%,100%,–
"N#CC1(c2ccc(S(F)(F)(F)(F)F)cc2)CCN(c2ccc(-c3nnc(CO)o3)nn2)CC1 [Example 58, 1-(6-(5-(Hydroxymethyl)-1,3,4-oxadiazol-2-yl)pyridazin-3-yl)-4-(4-(pentafluorosulfanyl)phenyl)piperidine-4-carbonitrile]",86.2%,89%,–
"N#CC1(c2ccc(S(F)(F)(F)(F)F)cc2)CCN(c2ccc(-c3nc(CO)ns3)nn2)CC1 [Example 108, 1-(6-(3-(Hydroxymethyl)-1,2,4-thiadiazol-5-yl)pyridazin-3-yl)-4-(4-(pentafluorosulfanyl)phenyl)piperidine-4-carbonitrile]",–,99%,–
"COC1(c2ccc(S(F)(F)(F)(F)F)cc2)CCN(c2ccc(-c3nnc(CO)o3)nn2)CC1 [Example 93, (5-(6-(4-Methoxy-4-(4-(pentafluorosulfanyl)phenyl)piperidin-1-yl)pyridazin-3-yl)-1,3,4-oxadiazol-2-yl)methanol]",58.1%,98%,–
"OCc1nsc(-c2ccc(N3CCC(c4ccc(C(F)(F)F)cc4)(C(F)(F)F)CC3)nn2)n1 [Example 112, (5-(6-(4-(Trifluoromethyl)-4-(4-(trifluoromethyl)phenyl)piperidin-1-yl)pyridazin-3-yl)-1,2,4-thiadiazol-3-yl)methanol]",53.7%,99%,–
"COC1(c2ccc(S(F)(F)(F)(F)F)cc2)CCN(c2ccc(-c3nc(CO)ns3)nn2)CC1 [Example 110, (5-(6-(4-Methoxy-4-(4-(pentafluorosulfanyl)phenyl)piperidin-1-yl)pyridazin-3-yl)-1,2,4-thiadiazol-3-yl)methanol]",64.8%,100%,–
"OCc1noc(-c2ccc(N3CCC(c4ccc(C(F)(F)F)cc4)(C(F)(F)F)CC3)nn2)n1 [Example 82, (5-(6-(4-(Trifluoromethyl)-4-(4-(trifluoromethyl)phenyl)piperidin-1-yl)pyridazin-3-yl)-1,2,4-oxadiazol-3-yl)methanol]",–,99%,–
"N#CC1(c2ccc(S(F)(F)(F)(F)F)cc2)CCN(c2ccc(-c3nnc(CO)s3)nn2)CC1 [Example 109, 1-(6-(5-(Hydroxymethyl)-1,3,4-thiadiazol-2-yl)pyridazin-3-yl)-4-(4-(pentafluorosulfanyl)phenyl)piperidine-4-carbonitrile]",–,87%,–

# Source: patent US20170015654A1, “PYRIDAZINE COMPOUND” (TAKEDA PHARMACEUTICAL COMPANY LIMITED, priority 2014, published 2017)
